The values below come from PMC12116762, “Topobexin targets the Topoisomerase II ATPase domain for beta isoform-selective inhibition and anthracycline cardioprotection” (Nature Communications, 2025).

For data set [1], the system named is neonatal rat ventricular cardiomyocytes (NVCM). In words: Inherent toxicity (LDH release) in NVCM. In kind it is cell-based. Further details: key to LDH release (inherent toxicity), mean of independent replicates: % of total LDH activity. The conditions noted are these: NVCM; for LTC = lowest toxic concentration: compound alone, n=4. The method, then: (§1) The protective effects of the BNS-22 and newly prepared compounds were evaluated using primary cultures of neonatal rat cardiomyocytes isolated in house as previously described. Hearts isolated from 1- to 3-day-old Wistar rats were minced in buffer (1.2 mM MgSO4 · 7H2O, 116 mM NaCl, 5.3 mM KCl, 1.13 mM NaH2PO4 · H2O, 20 mM 4-(2-hydroxyethyl)-1-piperazine ethanesulfonic acid (HEPES), glucose 1 mg/mL) on ice, then serially digested (20 min, six repetitions) at 37 °C with collagenase type II (60 U/mL, Gibco). After 2 h pre-plating in a 150 mm Petri dish per approximately 20 hearts to minimize non-myocyte contamination, cells were plated in 24-well gelatin-coated plates at a density of 400,000 cells per well. Cells were cultured at 37 °C and 5% CO2 in Dulbecco’s modified Eagle medium (DMEM)/ F12 culture medium supplemented with 10% horse serum, 5% fetal bovine serum (FBS), 20 mM sodium pyruvate, 50 U/mL penicillin, and 50 μg/mL streptomycin. Freshly isolated cells were left for 40 h to attach and form a culture of spontaneously beating cardiomyocytes, then the medium was changed to DMEM/F12 medium supplemented with 5% fetal bovine serum, 20 mM sodium pyruvate, 50 U/mL penicillin, and 50 μg/mL streptomycin. For the experiments, the medium was changed to serum- and pyruvate-free DMEM/F12 with 50 U/mL penicillin and 50 μg/mL streptomycin. Cardiomyocytes were pretreated with BNS-22 or new compounds for 3 h and then coincubated with DAU (1.2 µM) for another 3 h. After the DAU treatment period, the culture medium was exchanged for the drug-free DMEM/F12 with 50 U/mL penicillin and 50 μg/mL streptomycin for the 48 h follow-up. Experiments to determine the inherent toxicity of each compound studied follow the same schedule, only no DAU was added. Subsequently, the culture medium sample was taken from each well for evaluation of lactate dehydrogenase (LDH) activity. The total LDH activity of each sample for normalization was measured after 1 h of incubation at 37 °C in lysis buffer (0.1 M potassium phosphate, 1% Triton X-100, 1 mM dithiothreitol (DTT), 2 mM EDTA, pH 7.8, 15 min in RT). All samples were immediately analyzed in Tris HCl buffer (pH 8.9) containing 35 mM lactic acid and 5 mM NAD^+. The rate of NAD^+ reduction was monitored spectrophotometrically at 340 nm for 2 min. The slope of the linear region was calculated, and the results were expressed as a percentage of the total LDH. Each presented data point was obtained from distinct sample.
Background: LDH leaks from cells whose membrane has failed.

Data set [2] has the same test system. The experiment in a line: Protection against DAU-induced cytotoxicity (LDH release) in NVCM. Particulars: for minimal effective concentration: Rattus norvegicus, Cardiomyocyte, protection against DAU 1.2 µM, n=4, read-out: LEC = lowest effective concentration; for minimal effective concentration / LDH release (protection against DAU), mean of independent replicates: NVCM; for LDH release (protection against DAU), mean of independent replicates: Suppl.Fig.6b. The class given is cell-based. Set-up: key to Suppl.Fig.3 DAU-induced cytotoxicity (LDH release) in NVCM, mean of independent replicates / LDH release (DAU-induced cytotoxicity), mean of independent replicates: % of total LDH activity. The procedure: as §1

The mark [3] stands for this setting: compound alone 0.01 µM, Suppl.Fig.6c.
[4] abbreviates: compound alone 0.1 µM, Suppl.Fig.6c.
Where [5] appears, read: compound alone 1 µM, Suppl.Fig.6c.
[6] abbreviates: compound alone 10 µM, Suppl.Fig.6c.
The mark [7] stands for this setting: compound alone 30 µM, Suppl.Fig.6c.
Setting [8] is: compound alone 100 µM, Suppl.Fig.6c.
Setting [9] is: compound alone 10 µM, Suppl.Fig.4.
[10] abbreviates: compound alone 30 µM, Suppl.Fig.4.

Molecules are shown by their SMILES. Some results are limits rather than exact numbers.

In the case of `CCCc1cc(=O)oc2c(C(=O)N3CCCc4ccccc43)c(OCCN(C)C)ccc12` [compound 7], the “LDH release (inherent toxicity), mean of independent replicates” value (from here on “LDH release (inherent toxicity), mean”) in data set [1] (setting [3]) worked out at 12.5189; in data set [1] (setting [4]) it was 12.4578; in data set [1] (setting [5]), 12.8607; in data set [1] (setting [6]), 14.2154; in data set [1] (setting [7]), 18.2491; in data set [1] (setting [8]) it was 27.6932. The minimal effective concentration in data set [2] amounted to 10 µM. Besides, the “LDH release (protection against DAU), mean of independent replicates” value in data set [2] (compound 0.01 µM + DAU 1.2 µM) is 44.2016; in data set [2] (compound 0.1 µM + DAU 1.2 µM) it was 45.7696; in data set [2] (compound 1 µM + DAU 1.2 µM), 39.8955; in data set [2] (compound 10 µM + DAU 1.2 µM), 31.2866; in data set [2] (compound 30 µM + DAU 1.2 µM), 33.8072; in data set [2] (compound 100 µM + DAU 1.2 µM) it was 37.6314.
As to `CCCOc1ccc2c(C)cc(=O)oc2c1C(=O)N1CCCc2ccccc21` [4a], in data set [1], the “LTC = lowest toxic concentration” value was greater than 30 µM. In addition, the “LDH release (inherent toxicity), mean” value was 13.7469 in data set [1] (compound alone 0.1 µM, Suppl.Fig.4); 13.1211 in data set [1] (compound alone 1 µM, Suppl.Fig.4); 16.3565 in data set [1] (setting [9]); 19.993 in data set [1] (setting [10]). In addition, the minimal effective concentration in data set [2] came out at 10 µM. Moreover, the “Suppl.Fig.3 DAU-induced cytotoxicity (LDH release) in NVCM, mean of independent replicates” value is 45.8753 in data set [2] (compound 0.1 µM + DAU 1.2 µM), 42.086 in data set [2] (compound 1 µM + DAU 1.2 µM), 32.6284 in data set [2] (compound 10 µM + DAU 1.2 µM) and 30.3987 in data set [2] (compound 30 µM + DAU 1.2 µM).
On to `Cc1cc(=O)oc2c(C(=O)N3CCCc4ccccc43)c(O)ccc12` [2a], for which the “LDH release (inherent toxicity), mean” value in data set [1] (setting [9]) turned out to be 13.7502; in data set [1] (setting [10]), 15.9605; in data set [1] (compound alone 100 µM, Suppl.Fig.4) it was 17.1189. Besides, the “Suppl.Fig.3 DAU-induced cytotoxicity (LDH release) in NVCM, mean of independent replicates” value was determined as 37.2223 in data set [2] (compound 10 µM + DAU 1.2 µM), 39.137 in data set [2] (compound 30 µM + DAU 1.2 µM) and 42.8636 in data set [2] (compound 100 µM + DAU 1.2 µM).
`CCCc1cc(=O)oc2c(C(=O)N3CCCc4ccccc43)c(OCCCN3CCCCC3)ccc12` [compound 8]: the “LTC = lowest toxic concentration” value in data set [1] was determined as 30 µM. Besides, the “LDH release (inherent toxicity), mean” value in data set [1] (setting [3]) stood at 14.7015; in data set [1] (setting [4]), 13.9677; in data set [1] (setting [5]) it was 14.1413; in data set [1] (setting [6]), 16.8035; in data set [1] (setting [7]), 21.145; in data set [1] (setting [8]), 29.4802. Also, the minimal effective concentration in data set [2] came out at 1 µM. In addition, the “LDH release (protection against DAU), mean of independent replicates” value amounted to 40.886 in data set [2] (compound 0.01 µM + DAU 1.2 µM); 39.8568 in data set [2] (compound 0.1 µM + DAU 1.2 µM); 34.126 in data set [2] (compound 1 µM + DAU 1.2 µM); 30.5731 in data set [2] (compound 10 µM + DAU 1.2 µM); 32.7612 in data set [2] (compound 30 µM + DAU 1.2 µM); 39.9555 in data set [2] (compound 100 µM + DAU 1.2 µM).
